Test results published in a melting point compilation (Tetko et al.; mined from patent text by program, amines drawn as free bases though some values may be those of a salt).

SMILES	melting point [°C]
CN1CCN(c2nc3sc4c(NCCCn5ccnc5)ncnc4c3c3c2COC(C)(C)C3)CC1	227
Cc1c(Br)cc(Cl)c(NS(=O)(=O)c2n[nH]c(NC=O)n2)c1Cl	> 290
CNc1ccc([N+](=O)[O-])cc1[N+](=O)[O-]	177 to 178
N#CC1(Cc2ccccc2)CCN(Cc2ccccc2)CC1	92
Nc1cc(F)c(C2CCSCC2)c(F)c1	118 to 119
c1ccc(CCNc2cc(-n3cccn3)nc(-c3cccs3)n2)nc1	159 to 160
CC(Cc1c[nH]c2ccccc12)(NC(=O)OC1C2CC3CC(C2)CC1C3)C(=O)NCC(CCC(=O)O)c1ccccc1 (stereo not drawn)	117 to 122
CCC(CC)C(c1ccnn1-c1ccccc1)N(C)S(=O)(=O)c1ccc(Cl)cc1 (stereo not drawn)	86.5 to 89
C[C@H]1CN(c2c(F)cc3c(=O)c(C(=O)O)cn(CCF)c3c2F)C[C@H]1NC(=O)OC(C)(C)C (relative stereo)	217 to 219
OC(COc1cccc2[nH]ncc12)CN1CCC(COc2ccccc2)CC1 (stereo not drawn)	141 to 142
Cc1nn(-c2ccccn2)cc1COc1ccc(C=O)cc1	84 to 85
CC(=O)NCC1CC1c1c(Br)ccc2nn(C)cc12 (stereo not drawn)	135 to 137
O=C1C=CC(OC2CCCCC2)N1S(=O)(=O)c1ccccc1 (stereo not drawn)	104 to 106
O=C(Cl)c1ccc(Cl)cc1Sc1ccccc1	94 to 96
CN1C(=O)c2ccccc2C(C(=O)O)C1c1ccc(OCc2ccccc2)c(OCc2ccccc2)c1 (stereo not drawn)	170 to 172
Cc1ccc2cccnc2c1C(=O)Nc1nnn[nH]1	285 to 287
CCOC(=O)CN1C(=O)C(NC(=O)OCc2ccccc2)N=C(c2ccccc2)c2ccccc21 (stereo not drawn)	65 to 66
C=CC1CCC2C3CC=C4CC(O)CCC4(C)C3CCC12C (stereo not drawn)	132 to 135
O=C(O)c1cccc(-c2nc(=O)c3ccccc3s2)n1	260
CC(C)(C)C(=O)Nc1cccc(-c2ccnc3c(C(=O)c4ccccc4)cnn23)c1	160 to 161
CNC(=O)CSC(c1ccccc1)(c1ccccc1)c1ccccc1	200 to 210
CCC(C)C(NC(=O)OCc1ccccc1)C(=O)NC(C(=O)Nc1n[nH]c(=S)s1)C(C)C (stereo not drawn)	197 to 198
Cn1ncnc1COc1nn2c(-c3ccco3)nncc2c1-c1ccccc1F	204 to 206
OCc1cnn2ccc3c(c12)CCO3	152 to 154

Continued, values first:

melting point [°C]	SMILES
114 to 116	COc1ccc(C(=O)CC(C)(C)C(=O)O)cc1OC
191	CC(=O)c1cccc(C=CC(=O)N2CCc3c([nH]c4ccccc34)C2c2ccc3c(c2)OCO3)c1 (stereo not drawn)
198 to 199	COc1cc2c(cc1NC(=S)Nc1ccc([N+](=O)[O-])cc1)C(C)(C)OCC2(C)C
108 to 111	O=C1NC(=O)C(Cc2ccc(OCCON=Cc3ccc4ccccc4c3)cc2)S1 (stereo not drawn)
172 to 174	COc1ccccc1NC(=O)c1ccccc1CN1C(=O)C2(COc3cc4c(cc32)CCO4)c2ccccc21 (stereo not drawn)
124 to 126	COc1cc(C(=O)N(C(C)C)C2CCCCC2)ccc1Cn1c(CO)nc2cccnc21
235 to 237	O=C1CCC(N2C(=O)c3cccc(Nc4ccc5ccccc5c4)c3C2=O)C(=O)N1 (stereo not drawn)
205 to 207	CCOC(=O)c1cn(-c2cc(NC(=O)OC(C)(C)C)c(F)cc2F)c2cc(F)c(C)cc2c1=O
60	CS(=O)(=O)c1ccc(-c2cc(O)sc2-c2ccc(F)cc2)cc1
240	CN1CS(=Nc2ccc3[nH]nnc3c2)c2ccccc21 (stereo not drawn)
217 to 218	CCCCNC(=O)NCc1ccc(Nc2n[nH]c3ncnc(Nc4cccc(Cl)c4)c23)cc1
165 to 166	Oc1ccc2cc(OCC(O)CCc3cccnc3)ccc2c1 (stereo not drawn)
148 to 151	COc1ccc(NC(=O)c2ccc(F)c(F)c2)cc1N
107 to 111	Cc1ccc(S(=O)(=O)OC[C@H]2CCc3ccc4ccccc4c3O2)cc1
